The results in this text go back to US9975907B2, “Pyrimidinones as PI3K inhibitors” (Incyte Corporation, priority 2009, dated 2018).

SMILES strings stand for the structures. Structures can show the parent of a compound that is named as a salt. Bounds are passed on as bounds.

In this experiment the target is PI3Kδ (p110δ/p85α) (Homo sapiens (Human), UniProt O00329). Description: PI3Kδ Scintillation Proximity Assay (Assay A3). It counts as biochemical. The settings on record: column b, Assay A3 (SPA), 20 μM ATP. The text has this: [γ-^33P]ATP (10 mCi/mL) was purchased from Perkin-Elmer (Waltham, Mass.). Lipid kinase substrate, D-myo-Phosphatidylinositol 4,5-bisphosphate (PtdIns(4,5)P2)D (+)-sn-1,2-di-O-octanoylglyceryl, 3-O-phospho linked (PIP2), CAS 204858-53-7, was purchased from Echelon Biosciences (Salt Lake City, Utah). PI3Kδ (p110δ/p85α) was purchased from Millipore (Bedford, Mass.). ATP, MgCl2, DTT, EDTA, MOPS and CHAPS were purchased from Sigma-Aldrich (St. Louis, Mo.). Wheat Germ Agglutinin (WGA) YSi SPA Scintillation Beads was purchased from GE healthcare life sciences (Piscataway, N.J.).
The kinase reaction was conducted in polystyrene 384-well matrix white plate from Thermo Fisher Scientific in a final volume of 25 μL. Inhibitors were first diluted serially in DMSO and added to the plate wells before the addition of other reaction components. The final concentration of DMSO in the assay was 0.5%. The PI3K assays were carried out at room temperature in 20 mM MOPS, pH 6.7, 10 mM MgCl2, 5 mM DTT and CHAPS 0.03%. Reactions were initiated by the addition of ATP, the final reaction mixture consisted of 20 μM PIP2, 20 μM ATP, 0.2 μCi [γ-^33P] ATP, 4 nM PI3Kδ. Reactions were incubated for 210 min and terminated by the addition of 40 μL SPA beads suspended in quench buffer: 150 mM potassium phosphate pH 8.0, 20% glycerol. 25 mM EDTA, 400 μM ATP. The final concentration of SPA beads was 1.0 mg/mL. After the plate sealing, plates were shaken overnight at room temperature and centrifuged at 1800 rpm for 10 minutes, the radioactivity of the product was determined by scintillation counting on Topcount (Perkin-Elmer). IC50 determination was performed by fitting the curve of percent control activity versus the log of the inhibitor concentration using the GraphPad Prism 3.0 software.
On the technique in general: Scintillation proximity formats need no separation of bound from free tracer.

PI3Kδ (p110δ/p85α), sequence (O00329 whole entry, species assumed): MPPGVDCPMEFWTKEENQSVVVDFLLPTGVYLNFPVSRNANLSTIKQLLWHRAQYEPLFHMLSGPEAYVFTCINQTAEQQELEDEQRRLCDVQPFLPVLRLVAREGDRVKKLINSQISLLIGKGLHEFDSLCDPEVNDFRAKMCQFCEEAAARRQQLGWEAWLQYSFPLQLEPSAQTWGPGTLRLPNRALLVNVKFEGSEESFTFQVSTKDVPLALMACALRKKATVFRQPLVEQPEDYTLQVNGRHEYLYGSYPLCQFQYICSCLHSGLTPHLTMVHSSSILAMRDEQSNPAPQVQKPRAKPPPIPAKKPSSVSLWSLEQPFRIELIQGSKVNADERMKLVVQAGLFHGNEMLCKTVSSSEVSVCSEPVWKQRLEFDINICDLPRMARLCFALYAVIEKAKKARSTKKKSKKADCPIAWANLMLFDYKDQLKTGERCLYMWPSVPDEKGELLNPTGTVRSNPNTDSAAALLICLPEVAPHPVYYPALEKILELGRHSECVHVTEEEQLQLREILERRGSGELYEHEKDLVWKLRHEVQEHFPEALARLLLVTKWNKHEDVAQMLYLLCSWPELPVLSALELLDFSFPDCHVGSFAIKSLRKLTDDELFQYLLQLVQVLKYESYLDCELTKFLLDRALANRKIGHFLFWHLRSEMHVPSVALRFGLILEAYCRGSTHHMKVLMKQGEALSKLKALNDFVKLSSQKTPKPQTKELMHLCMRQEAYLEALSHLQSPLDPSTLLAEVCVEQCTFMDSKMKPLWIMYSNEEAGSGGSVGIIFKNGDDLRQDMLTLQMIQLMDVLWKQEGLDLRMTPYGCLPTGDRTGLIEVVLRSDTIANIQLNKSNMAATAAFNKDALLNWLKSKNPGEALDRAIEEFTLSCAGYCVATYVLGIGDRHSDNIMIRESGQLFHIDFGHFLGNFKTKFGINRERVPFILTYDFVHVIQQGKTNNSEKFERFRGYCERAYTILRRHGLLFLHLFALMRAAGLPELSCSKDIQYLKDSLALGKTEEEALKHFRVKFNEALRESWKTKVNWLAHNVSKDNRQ
PI3Kδ (p110δ/p85α), sequence (P27986 whole entry partner, species assumed): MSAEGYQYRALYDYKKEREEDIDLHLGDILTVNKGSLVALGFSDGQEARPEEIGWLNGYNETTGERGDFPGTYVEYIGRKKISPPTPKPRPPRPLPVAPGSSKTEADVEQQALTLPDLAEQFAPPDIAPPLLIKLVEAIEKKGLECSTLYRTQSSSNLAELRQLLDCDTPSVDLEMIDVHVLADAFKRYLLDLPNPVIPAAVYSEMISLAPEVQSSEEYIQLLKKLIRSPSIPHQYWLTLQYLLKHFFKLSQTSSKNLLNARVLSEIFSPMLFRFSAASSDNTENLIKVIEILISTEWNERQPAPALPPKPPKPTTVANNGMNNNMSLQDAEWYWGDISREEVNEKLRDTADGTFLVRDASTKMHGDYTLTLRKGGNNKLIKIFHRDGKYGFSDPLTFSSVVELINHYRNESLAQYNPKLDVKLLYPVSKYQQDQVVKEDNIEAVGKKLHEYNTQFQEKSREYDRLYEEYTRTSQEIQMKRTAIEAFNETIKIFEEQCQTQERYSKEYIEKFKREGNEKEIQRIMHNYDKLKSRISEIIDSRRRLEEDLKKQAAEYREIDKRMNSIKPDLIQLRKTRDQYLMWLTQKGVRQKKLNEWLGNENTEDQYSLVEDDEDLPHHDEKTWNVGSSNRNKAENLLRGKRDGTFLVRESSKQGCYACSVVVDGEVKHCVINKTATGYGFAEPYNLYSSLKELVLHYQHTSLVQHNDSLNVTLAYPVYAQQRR

On to `Cc1cccc2nc(C(C)Nc3nc(N)nc4[nH]cnc34)c(-c3ccccc3)c(=O)n12` (stereo not drawn) [Example 50, 2-{1-[(2-Amino-9H-purin-6-yl)amino]ethyl}-6-methyl-3-phenyl-4H-pyrido[1,2-a]pyrimidin-4-one trifluoroacetic acid salt], for which the IC50 is less than 50 nM. On to `Cc1cccc(-c2c(C(C)Nc3ncnc4[nH]cnc34)nc3cccc(C)n3c2=O)c1` (stereo not drawn) [Example 51, 6-Methyl-3-(3-methylphenyl)-2-[1-(9H-purin-6-ylamino)ethyl]-4H-pyrido[1,2-a]pyrimidin-4-one trifluoroacetic acid salt], for which the IC50 is 100 to 500 nM. In the case of `Cc1cccc(-c2c(C(C)Nc3nc(N)nc4[nH]cnc34)nc3cccc(C)n3c2=O)c1` (stereo not drawn) [Example 52, 2-{1-[(2-Amino-9H-purin-6-yl)amino]ethyl}-6-methyl-3-(3-methylphenyl)-4H-pyrido[1,2-a]pyrimidin-4-one trifluoroacetic acid salt], the IC50 is less than 50 nM.

In turn, `Cc1cccc2nc(C(C)Nc3ncnc4[nH]cnc34)c(-c3cccc(Cl)c3)c(=O)n12` (stereo not drawn) [Example 53, 3-(3-Chlorophenyl)-6-methyl-2-[1-(9H-purin-6-ylamino)ethyl]-4H-pyrido[1,2-a]pyrimidin-4-one trifluoroacetic acid salt] registered an IC50 of 100 to 500 nM. `Cc1cccc2nc(C(C)Nc3nc(N)nc4[nH]cnc34)c(-c3cccc(Cl)c3)c(=O)n12` (stereo not drawn) [Example 54, 2-{1-[(2-Amino-9H-purin-6-yl)amino]ethyl}-3-(3-chlorophenyl)-6-methyl-4H-pyrido[1,2-a]pyrimidin-4-one trifluoroacetic acid salt] displayed an IC50 of less than 50 nM. To `Cc1cccc2nc(C(C)Nc3ncnc4[nH]cnc34)c(-c3ccc(Cl)cc3)c(=O)n12` (stereo not drawn) [Example 55, 3-(4-Chlorophenyl)-6-methyl-2-[1-(9H-purin-6-ylamino)ethyl]-4H-pyrido[1,2-a]pyrimidin-4-one trifluoroacetic acid salt] belongs more than 500 nM; to `Cc1cccc2nc(C(C)Nc3nc(N)nc4[nH]cnc34)c(-c3ccc(Cl)cc3)c(=O)n12` (stereo not drawn) [Example 56, 2-{1-[(2-Amino-9H-purin-6-yl)amino]ethyl}-3-(4-chlorophenyl)-6-methyl-4H-pyrido[1,2-a]pyrimidin-4-one trifluoroacetic acid salt], more than 500 nM. Turning to `Cc1cccc2nc(C(C)Nc3ncnc4[nH]cnc34)c(-c3ccccc3Cl)c(=O)n12` (stereo not drawn) [Example 57, 3-(2-Chlorophenyl)-6-methyl-2-[1-(9H-purin-6-ylamino)ethyl]-4H-pyrido[1,2-a]pyrimidin-4-one trifluoroacetic acid salt], the IC50 was less than 50 nM. As to `Cc1cccc2nc(C(C)Nc3nc(N)nc4[nH]cnc34)c(-c3ccccc3Cl)c(=O)n12` (stereo not drawn) [Example 58, 2-{1-[(2-Amino-9#-purin-6-yl)amino]ethyl}-3-(2-chlorophenyl)-6-methyl-4H-pyrido[1,2-a]pyrimidin-4-one trifluoroacetic acid salt], the IC50 is less than 50 nM. On to `Cc1cccc2nc(C(C)Nc3ncnc4[nH]cnc34)c(-c3ccccc3F)c(=O)n12` (stereo not drawn) [Example 59, 3-(2-Fluorophenyl)-6-methyl-2-[1-(9H-purin-6-ylamino)ethyl]-4H-pyrido[1,2-a]pyrimidin-4-one trifluoroacetic acid salt], for which the IC50 is less than 50 nM. As for `Cc1cccc2nc(C(C)Nc3nc(N)nc4[nH]cnc34)c(-c3ccccc3F)c(=O)n12` (stereo not drawn) [Example 60, 2-{1-[(2-Amino-9#-purin-6-yl)amino]ethyl}-3-(2-fluorophenyl)-6-methyl-4H-pyrido[1,2-a]pyrimidin-4-one trifluoroacetic acid salt], the IC50 was less than 50 nM. For the molecule `Cc1cccc2nc(C(C)Nc3ncnc4[nH]cnc34)c(-c3ccc(C#N)cc3)c(=O)n12` (stereo not drawn) [Example 61, 4-{6-Methyl-4-oxo-2-[1-(9H-purin-6-ylamino)ethyl]-4H-pyrido[1,2-a]pyrimidin-3-yl}benzonitrile trifluoroacetic acid salt], the IC50 was more than 500 nM. The molecule `Cc1cccc2nc(C(C)Nc3nc(N)nc4[nH]cnc34)c(-c3ccc(C#N)cc3)c(=O)n12` (stereo not drawn) [Example 62, 4-(2-{1-[(2-Amino-9H-purin-6-yl)amino]ethyl}-6-methyl-4-oxo-4H-pyrido[1,2-a]pyrimidin-3-yl)benzonitrile trifluoroacetic acid salt] showed an IC50 of 100 to 500 nM. Turning to `Cc1ccccc1-c1c(C(C)Nc2ncnc3[nH]cnc23)nc2cccc(C)n2c1=O` (stereo not drawn) [Example 63, 6-Methyl-3-(2-methylphenyl)-2-[1-(9H-purin-6-ylamino)ethyl]-4H-pyrido[1,2-a]pyrimidin-4-one trifluoroacetic acid salt], the IC50 fell in the range of 100 to 500 nM. The same measure for `Cc1ccc(-c2c(C(C)Nc3ncnc4[nH]cnc34)nc3cccc(C)n3c2=O)cc1` (stereo not drawn) [Example 64, 6-Methyl-3-(4-methylphenyl)-2-[1-(9H-purin-6-ylamino)ethyl]-4H-pyrido[1,2-a]pyrimidin-4-one trifluoroacetic acid salt]: less than 50 nM. For `COc1cccc(-c2c(C(C)Nc3ncnc4[nH]cnc34)nc3cccc(C)n3c2=O)c1` (stereo not drawn) [Example 65, 3-(3-Methoxyphenyl)-6-methyl-2-[1-(9H-purin-6-ylamino)ethyl]-4H-pyrido[1,2-a]pyrimidin-4-one trifluoroacetic acid salt], the IC50 was less than 50 nM.

In turn, `Cc1cccc2nc(C(C)Nc3ncnc4[nH]cnc34)c(-c3cccc(F)c3F)c(=O)n12` (stereo not drawn) [Example 66, 3-(2,3-Difluorophenyl)-6-methyl-2-[1-(9H-purin-6-ylamino)ethyl]-4H-pyrido[1,2-a]pyrimidin-4-one trifluoroacetic acid salt] came in with an IC50 of less than 50 nM. With `Cc1cccc2nc(C(C)Nc3ncnc4[nH]cnc34)c(-c3cc(F)ccc3F)c(=O)n12` (stereo not drawn) [Example 67, 3-(2,5-Difluorophenyl)-6-methyl-2-[1-(9H-purin-6-ylamino)ethyl]-4H-pyrido[1,2-a]pyrimidin-4-one trifluoroacetic acid salt], the IC50 was less than 50 nM. `Cc1cccc2nc(C(C)Nc3ncnc4[nH]cnc34)c(-c3ccc(F)c(F)c3)c(=O)n12` (stereo not drawn) [Example 68, 3-(3,4-Difluorophenyl)-6-methyl-2-[1-(9H-purin-6-ylamino)ethyl]-4H-pyrido[1,2-a]pyrimidin-4-one trifluoroacetic acid salt] returned an IC50 of 100 to 500 nM.

As for `Cc1cccc2nc(C(C)Nc3ncnc4[nH]cnc34)c(-c3cc(F)cc(F)c3)c(=O)n12` (stereo not drawn) [Example 69, 3-(3,5-Difluorophenyl)-6-methyl-2-[1-(9H-purin-6-ylamino)ethyl]-4H-pyrido[1,2-a]pyrimidin-4-one trifluoroacetic acid salt], the IC50 is 100 to 500 nM.

On to `CCc1cccc2nc(C(C)Nc3ncnc4[nH]cnc34)c(-c3cc(F)cc(F)c3)c(=O)n12` (stereo not drawn) [Example 76, 3-(3,5-Difluorophenyl)-6-ethyl-2-[1-(9H-purin-6-ylamino)ethyl]-4H-pyrido[1,2-a]pyrimidin-4-one trifluoroacetic acid salt], for which the IC50 is 100 to 500 nM. As to `CCc1cccc2nc(C(C)Nc3nc(N)nc4[nH]cnc34)c(-c3cc(F)cc(F)c3)c(=O)n12` (stereo not drawn) [Example 77, 2-{1-[(2-Amino-9#-purin-6-yl)amino]ethyl}-3-(3,5-difluorophenyl)-6-ethyl-4H-pyrido[1,2-a]pyrimidin-4-one trifluoroacetic acid salt], the concentration for half-maximal inhibition (IC50) fell in the range of 50 to 100 nM.

`CCc1cccc2nc(C(C)Nc3ncnc4[nH]cnc34)c(-c3ccc(F)cc3)c(=O)n12` (stereo not drawn) [Example 78, 6-Ethyl-3-(4-fluorophenyl)-2-[1-(9H-purin-6-ylamino)ethyl]-4H-pyrido[1,2-a]pyrimidin-4-one trifluoroacetic acid salt] yielded an IC50 of less than 50 nM.

The molecule `CC(Nc1ncnc2[nH]cnc12)c1nc2ccccn2c(=O)c1-c1cc(F)cc(F)c1` (stereo not drawn) [Example 79, 3-(3,5-Difluorophenyl)-2-[1-(9H-purin-6-ylamino)ethyl]-4H-pyrido[1,2-a]pyrimidin-4-one trifluoroacetic acid salt] showed an IC50 of more than 500 nM.

The molecule `CC(Nc1nc(N)nc2[nH]cnc12)c1nc2ccccn2c(=O)c1-c1cc(F)cc(F)c1` (stereo not drawn) [Example 80, 2-{1-[(2-Amino-9H-purin-6-yl)amino]ethyl}-3-(3,5-difluorophenyl)-4H-pyrido[1,2-a]pyrimidin-4-one trifluoroacetic acid salt] came in with an IC50 of 100 to 500 nM.

`Cc1cc(-c2c(C(C)Nc3ncnc4[nH]cnc34)nc3cccc(C)n3c2=O)cnc1Cl` (stereo not drawn) [Example 81, 3-(6-Chloro-5-methylpyridin-3-yl)-6-methyl-2-[1-(9H-purin-6-ylamino)ethyl]-4H-pyrido[1,2-a]pyrimidin-4-one trifluoroacetic acid salt] registered a half-inhibitory concentration (IC50) of more than 500 nM.

In turn, `Cc1cc(-c2c(C(C)Nc3nc(N)nc4[nH]cnc34)nc3cccc(C)n3c2=O)cnc1Cl` (stereo not drawn) [Example 82, 2-{1-[(2-Amino-9H-purin-6-yl)amino]ethyl}-3-(6-chloro-5-methylpyridin-3-yl)-6-methyl-4H-pyrido[1,2-a]pyrimidin-4-one trifluoroacetic acid salt] yielded an IC50 of more than 500 nM.

In general, IC50 refers to the concentration that gives 50% inhibition. Read a low IC50 as greater potency in that assay.
